Earlier results on four compounds are cited in patent US7482343B2, “Compounds, methods and compositions” (Cytokinetics, Inc., priority 2002, dated 2009).

The data set deals with A549 cells. The note with it: data provided by National Cancer Institute.
As to `O=c1[nH]cc(F)c(=O)[nH]1` [5-fluorouracil], the 50% growth inhibitory concentration (GI50) is 1000 nM. On to `COc1cccc2c1C(=O)c1c(O)c3c(c(O)c1C2=O)C[C@@](O)(C(=O)CO)C[C@@H]3O[C@H]1C[C@H](N)[C@H](O)[C@H](C)O1` [doxorubicin], for which the concentration for 50% growth inhibition (GI50) is 63 nM.

With `CC(=O)O[C@H]1C(=O)[C@@]2(C)[C@H]([C@H](OC(=O)c3ccccc3)[C@]3(O)C[C@H](OC(=O)[C@H](O)[C@@H](NC(=O)c4ccccc4)c4ccccc4)C(C)=C1C3(C)C)[C@]1(OC(C)=O)CO[C@@H]1C[C@@H]2O` [paclitaxel], the GI50 was 4 nM. For `NC(=O)NO` [hydroxyurea], the GI50 was 500000 nM.
